According to publication PMC5469273, “Discovery of Novel Small-Molecule Inhibitors of LIM Domain Kinase for Inhibiting HIV-1” (Journal of Virology, 2017):

What was measured:
[1] = test system: HIV-1(NL4-3); assay type: cell-based; conditions: for Infectivity (percentage of GFP+ cells): 100 μM, pretreated 1 h, HIV-1(NL4-3) 3 h, washed, viable cells only, paired DMSO controls 1.76-3.37%; for X4 HIV infection in screening: at nontoxic dosages, Fig. 1C and 2
[2] = target: LIMK1 (Homo sapiens, UniProt P53667); assay: LIMK1 biochemical assay, 10-dose IC50; design: purified from insect cells; His; purchased Reaction Biology Corporation, Malvern, PA; host or cells: insect cells (coexpressed with ROCK1); conditions: purified LIMK1; 10 μM ATP, 1 μM cofilin; ≥2 in vitro kinase assays; read-out: LIMK1 Biochemical Inhibition IC50
From the text: We selected R10015 from the potential LIMK inhibitors for further detailed mechanistic studies. The synthesis, purification, and biochemical characterization of R10015 are described in Materials and Methods below and shown in Fig. 3. We performed a cell-free assay to measure R10015 inhibition of the LIM domain kinase using purified human LIMK1 and its substrate, cofilin. […] We also performed profiling of R10015 against a panel of 62 kinases (Table 2).
Biochemical LIMK1 assays for all inhibitors were carried out by Reaction Biology Corporation, Malvern, PA, and followed the protocols described on its website. […] Reactions were carried out at 10 μM ATP, 1 μM substrate (cofilin), and 50 nM LIMK1 (final concentrations). […] The reagents were as follows: base reaction buffer, 20 mM HEPES (pH 7.5), 10 mM MgCl2, 1 mM EGTA, 0.02% Brij 35, 0.02 mg/ml bovine serum albumin (BSA), 0.1 mM Na3VO4, 2 mM dithiothreitol (DTT), 1% DMSO. No additional cofactors were added to the reaction mixture. The reaction procedures were as follows. (i) The indicated substrate was prepared in freshly made base reaction buffer. (ii) Any required cofactors were delivered to the substrate solution described above. (iii) The indicated kinase was delivered into the substrate solution and gently mixed. (iv) The compounds in DMSO were delivered into the kinase reaction mixture. (v) [^33P]ATP (final specific activity, 0.01 μCi/μl) was delivered into the reaction mixture to initiate the reaction. […] (viii) The filters were washed extensively in 0.1% phosphoric acid.

[3] = in vitro; conditions: human
[4] = oral gavage 20 mg/kg daily, 7 days

Chain of LIMK1 (P53667 285-638): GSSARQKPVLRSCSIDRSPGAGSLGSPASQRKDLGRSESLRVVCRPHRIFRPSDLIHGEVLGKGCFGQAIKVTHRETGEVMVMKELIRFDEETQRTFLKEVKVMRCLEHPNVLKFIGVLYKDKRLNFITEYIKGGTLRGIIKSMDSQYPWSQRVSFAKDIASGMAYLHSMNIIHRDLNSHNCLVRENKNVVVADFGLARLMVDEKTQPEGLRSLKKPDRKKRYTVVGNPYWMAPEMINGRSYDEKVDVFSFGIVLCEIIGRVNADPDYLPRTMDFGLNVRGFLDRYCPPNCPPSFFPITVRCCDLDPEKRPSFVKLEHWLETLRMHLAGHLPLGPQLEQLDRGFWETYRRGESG

| SMILES | HIV-dependent GFP expression (GFP+ cells) ([1]; etravirine 100 nM, HIV(NL4-3), 48 h, Fig. 1B) | IC50 [2] | Infectivity (percentage of GFP+ cells) ([1]; 48 h) | X4 HIV infection in screening [1] | viability at 100 µM [3] | body weight over a week compared to PBS control [4] |
| --- | --- | --- | --- | --- | --- | --- |
| Cc1cc(C#N)cc(C)c1Oc1nc(Nc2ccc(C#N)cc2)nc(N)c1Br [Etravirine, etravirine, reference compound] | 0.01% |  |  |  |  |  |
| Cc1c[nH]c2ncnc(N3CCC(c4nc5cc(C#N)ccc5[nH]4)CC3)c12 [Compound R8212] |  | 44 ± 6 nM | 2.22% | blocked | 93.3% |  |
| Cc1c[nH]c2ncnc(-c3ccc(-c4nc5ccc(C(=O)NC6CCCC6)cc5[nH]4)c(F)c3)c12 [Compound R8584] |  | 50 ± 7 nM | 0.65% | blocked | 93.7% |  |
| Cc1c[nH]c2ncnc(-c3ccc(NC(=O)N(CCO)c4ccccc4)cc3)c12 [Compound R7826] |  |  | 1.02% | blocked | 96.2% | gained weight |
| CCOC(=O)c1ccc2nc(N3CCN(c4ncnc5[nH]cc(Cl)c45)[C@@H](C)C3)[nH]c2c1 [Compound R10659] |  |  | 1.30% | blocked | 89.8% |  |
| CC(C)NC(=O)c1ccc2[nH]c(N3CCN(c4ncnc5[nH]cc(Cl)c45)C[C@@H]3C)nc2c1 [Compound R10543] |  | 5 ± 2 nM | 0.75% | blocked | 90.1% |  |
| CC1(c2nc3ccc(C(=O)NC4CCC4)cc3[nH]2)CCN(c2ncnc3[nH]ccc23)CC1 [Compound R8482] |  | 41 ± 4 nM | 1.10% | blocked | 93.4% |  |
